Measured values published in US7776557B2, “Method for monitoring tocolytic treatment” (Diagnostic Technologies Ltd., priority 2006, dated 2010).

System: PP13
Assay: PP13 level in maternal venous serum of pregnant women under tocolytic treatment, solid-phase sandwich ELISA
Type: in vivo, human
Conditions: Example V: repeated administrations, compared with normal
Description: In all experiments, PP13 was measured (blinded to pregnancy outcome) in maternal venous serum by solid-phase sandwich ELISA assay. PP13 level was calibrated according to standard curves prepared from calibrated standards of recombinant PP13. Concentrations are given in pg PP13/ml serum.
This clinical study was approved by the medical center internal review ethical committee, and all women enrolled in the study provided informed consent to allow the use of a small volume of their blood to determine the level of PP13.

COC(=O)C1=C(C)NC(C)=C(C(=O)OC)C1c1ccccc1[N+](=O)[O-] [nifedipine]
area of elevated PP13 level above normal: 5.8 times
